Values of other authors, collected in PubChem BioAssay AID1259409 (Chemical Carcinogenesis Research Information System (CCRIS), 2018).

Test system: rodent chemically induced tumor inhibition, incidence and multiplicity
Test: CCRIS tumor inhibitor studies
Details: Dose [Inhibitor]: 0, Promoter: NONE USED

## S=C=NCCc1ccccc1
Carcinogen: BENZO[A]PYRENE, 50-32-8, 12 MG/KG/D FOR 6 CONSECUTIVE DAYS (STUDY DURATION: 7 MO), Route [Inhibitor]: GAVAGE, Species: MOUSE, Strain/Sex: STRAIN-A/FEMALE, Target Tissue: Type of Lesion: LUNG: TUMOR, Dose [Carcinogen]: 100 MG/KG ONCE AFTER FOURTH INHIBITOR DOSE
  tumour outcome (control, treated, inhibition, significance): 100%, 100%, 0%, not significant
Carcinogen: BENZO[A]PYRENE, 50-32-8, 12 MG/KG/D FOR 6 CONSECUTIVE DAYS (STUDY DURATION: 7 MO), Route [Inhibitor]: GAVAGE, Species: MOUSE, Strain/Sex: STRAIN-A/MALE, Target Tissue: Type of Lesion: LUNG: TUMOR, Dose [Carcinogen]: 100 MG/KG ONCE AFTER FOURTH INHIBITOR DOSE
  tumour outcome (control, treated, inhibition, significance): 100%, 100%, 0%, not significant
Carcinogen: BENZO[A]PYRENE, 50-32-8, 41 MG/KG/D FOR 6 CONSECUTIVE DAYS (STUDY DURATION: 7 MO), Route [Inhibitor]: GAVAGE, Species: MOUSE, Strain/Sex: STRAIN-A/FEMALE, Target Tissue: Type of Lesion: LUNG: TUMOR, Dose [Carcinogen]: 100 MG/KG ONCE AFTER FOURTH INHIBITOR DOSE
  tumour outcome (control, treated, inhibition, significance): 100%, 100%, 0%, not significant
Carcinogen: BENZO[A]PYRENE, 50-32-8, 41 MG/KG/D FOR 6 CONSECUTIVE DAYS (STUDY DURATION: 7 MO), Route [Inhibitor]: GAVAGE, Species: MOUSE, Strain/Sex: STRAIN-A/MALE, Target Tissue: Type of Lesion: LUNG: TUMOR, Dose [Carcinogen]: 100 MG/KG ONCE AFTER FOURTH INHIBITOR DOSE
  tumour outcome (control, treated, inhibition, significance): 100%, 95%, 5%, not calculated
Carcinogen: BENZO[A]PYRENE, 50-32-8, 82 MG/KG/D FOR 6 CONSECUTIVE DAYS (STUDY DURATION: 7 MO), Route [Inhibitor]: GAVAGE, Species: MOUSE, Strain/Sex: STRAIN-A/FEMALE, Target Tissue: Type of Lesion: LUNG: TUMOR, Dose [Carcinogen]: 100 MG/KG ONCE AFTER FOURTH INHIBITOR DOSE
  tumour outcome (control, treated, inhibition, significance): 100%, 100%, 0%, not significant
Carcinogen: BENZO[A]PYRENE, 50-32-8, 82 MG/KG/D FOR 6 CONSECUTIVE DAYS (STUDY DURATION: 7 MO), Route [Inhibitor]: GAVAGE, Species: MOUSE, Strain/Sex: STRAIN-A/MALE, Target Tissue: Type of Lesion: LUNG: TUMOR, Dose [Carcinogen]: 100 MG/KG ONCE AFTER FOURTH INHIBITION DOSE
  tumour outcome (control, treated, inhibition, significance): 100%, 100%, 0%, not significant
Carcinogen: BENZO[A]PYRENE, 50-32-8, 122 MG/KG/D FOR 6 CONSECUTIVE DAYS (STUDY DURATION: 7 MO), Route [Inhibitor]: GAVAGE, Species: MOUSE, Strain/Sex: STRAIN-A/FEMALE, Target Tissue: Type of Lesion: LUNG: TUMOR, Dose [Carcinogen]: 100 MG/KG ONCE AFTER FOURTH INHIBITOR DOSE
  tumour outcome (control, treated, inhibition, significance): 100%, 90%, 10%, not significant
Carcinogen: BENZO[A]PYRENE, 50-32-8, 122 MG/KG/D FOR 6 CONSECUTIVE DAYS (STUDY DURATION: 7 MO), Route [Inhibitor]: GAVAGE, Species: MOUSE, Strain/Sex: STRAIN-A/MALE, Target Tissue: Type of Lesion: LUNG: TUMOR, Dose [Carcinogen]: 100 MG/KG ONCE AFTER FOURTH INHIBITOR DOSE
  tumour outcome (control, treated, inhibition, significance): 100%, 95%, 5%, not significant
Carcinogen: DIETHYLNITROSAMINE, 55-18-5, 82 MG/KG BW BY INTRAPERITONEAL INJECTION ON DAYS 13, 14 AND 15 OF AGE THEN 0.65 G/KG DIET FROM 21 TO 161 DAYS OF AGE, Route [Inhibitor]: INTRAPERITONEAL, ORAL, Species: MOUSE, Strain/Sex: C3H/MALE, Target Tissue: Type of Lesion: LIVER: ADENOMA, Dose [Carcinogen]: 4 MG/KG IN TRICAPRYLIN ONCE ON DAY 15 OF AGE
  tumour outcome (control, treated, inhibition, significance): 100%, 89%, 11%, not significant
Carcinogen: DIETHYLNITROSAMINE, 55-18-5, N-METHYL-N-NITROSOUREA, 684-93-5, N-BUTYL-N-(4-HYDROXYBUTYL)NITROSAMINE, 3817-11-6, DIMETHY, Carcinogen: DIETHYLNITROSAMINE, 55-18-5, N-METHYL-N-NITROSOUREA, 684-93-5, N-BUTYL-N-(4-HYDROXYBUTYL)NITROSAMINE, 3817-11-6, DIMETHY, 0.1% IN THE DIET FOR 24 WK BEGINNING 1 DAY POST CARCINOGEN TREATMENT (STUDY DURATION: 28 WK), Route [Inhibitor]: ORAL, Species: RAT, Strain/Sex: F344/MALE, Target Tissue: Type of Lesion: LARGE INTESTINE: ADENOMA, Dose [Carcinogen]: 100 MG/KG BW DEN ONCE FOLLOWED BY 20 MG/KG BW MNU 4 TIMES AND 0.05% BBN IN DRINKING WATER DURING FIRST 2 WK THEN 40 MG/K
  tumour outcome (control, treated, inhibition, significance): 27%, 7%, 74%, not significant
Carcinogen: DIETHYLNITROSAMINE, 55-18-5, N-METHYL-N-NITROSOUREA, 684-93-5, N-BUTYL-N-(4-HYDROXYBUTYL)NITROSAMINE, 3817-11-6, DIMETHY, Carcinogen: DIETHYLNITROSAMINE, 55-18-5, N-METHYL-N-NITROSOUREA, 684-93-5, N-BUTYL-N-(4-HYDROXYBUTYL)NITROSAMINE, 3817-11-6, DIMETHY, 0.1% IN THE DIET FOR 24 WK BEGINNING 1 DAY POST CARCINOGEN TREATMENT (STUDY DURATION: 28 WK), Route [Inhibitor]: ORAL, Species: RAT, Strain/Sex: F344/MALE, Target Tissue: Type of Lesion: LARGE INTESTINE: CARCINOMA, Dose [Carcinogen]: 100 MG/KG BW DEN ONCE FOLLOWED BY 20 MG/KG BW MNU 4 TIMES AND 0.05% BBN IN DRINKING WATER DURING FIRST 2 WK THEN 40 MG/K
  tumour outcome (control, treated, inhibition, significance): 7%, 0%, 100%, not significant
Carcinogen: DIETHYLNITROSAMINE, 55-18-5, N-METHYL-N-NITROSOUREA, 684-93-5, N-BUTYL-N-(4-HYDROXYBUTYL)NITROSAMINE, 3817-11-6, DIMETHY, Carcinogen: DIETHYLNITROSAMINE, 55-18-5, N-METHYL-N-NITROSOUREA, 684-93-5, N-BUTYL-N-(4-HYDROXYBUTYL)NITROSAMINE, 3817-11-6, DIMETHY, 0.1% IN THE DIET FOR 24 WK BEGINNING 1 DAY POST CARCINOGEN TREATMENT (STUDY DURATION: 28 WK), Route [Inhibitor]: ORAL, Species: RAT, Strain/Sex: F344/MALE, Target Tissue: Type of Lesion: SMALL INTESTINE: ADENOMA, Dose [Carcinogen]: 100 MG/KG BW DEN ONCE FOLLOWED BY 20 MG/KG BW MNU 4 TIMES AND 0.05% BBN IN DRINKING WATER DURING FIRST 2 WK THEN 40 MG/K
  tumour outcome (control, treated, inhibition, significance): 33%, 50%, -52%, not significant
Carcinogen: DIETHYLNITROSAMINE, 55-18-5, N-METHYL-N-NITROSOUREA, 684-93-5, N-BUTYL-N-(4-HYDROXYBUTYL)NITROSAMINE, 3817-11-6, DIMETHY, Carcinogen: DIETHYLNITROSAMINE, 55-18-5, N-METHYL-N-NITROSOUREA, 684-93-5, N-BUTYL-N-(4-HYDROXYBUTYL)NITROSAMINE, 3817-11-6, DIMETHY, 0.1% IN THE DIET FOR 24 WK BEGINNING 1 DAY POST CARCINOGEN TREATMENT (STUDY DURATION: 28 WK), Route [Inhibitor]: ORAL, Species: RAT, Strain/Sex: F344/MALE, Target Tissue: Type of Lesion: SMALL INTESTINE: CARCINOMA, Dose [Carcinogen]: 100 MG/KG BW DEN ONCE FOLLOWED BY 20 MG/KG BW MNU 4 TIMES AND 0.05% BBN IN DRINKING WATER DURING FIRST 2 WK THEN 40 MG/K
  tumour outcome (control, treated, inhibition, significance): 7%, 14%, -100%, not significant
Carcinogen: DIETHYLNITROSAMINE, 55-18-5, N-METHYL-N-NITROSOUREA, 684-93-5, N-BUTYL-N-(4-HYDROXYBUTYL)NITROSAMINE, 3817-11-6, DIMETHY, Carcinogen: DIETHYLNITROSAMINE, 55-18-5, N-METHYL-N-NITROSOUREA, 684-93-5, N-BUTYL-N-(4-HYDROXYBUTYL)NITROSAMINE, 3817-11-6, DIMETHY, 0.1% IN THE DIET FOR 24 WK BEGINNING 1 DAY POST CARCINOGEN TREATMENT (STUDY DURATION: 28 WK), Route [Inhibitor]: ORAL, Species: RAT, Strain/Sex: F344/MALE, Target Tissue: Type of Lesion: THYROID: CARCINOMA, Dose [Carcinogen]: 100 MG/KG BW DEN ONCE FOLLOWED BY 20 MG/KG BW MNU 4 TIMES AND 0.05% BBN IN DRINKING WATER DURING FIRST 2 WK THEN 40 MG/K
  tumour outcome (control, treated, inhibition, significance): 7%, 8%, -14%, not significant
Carcinogen: DIETHYLNITROSAMINE, 55-18-5, N-METHYL-N-NITROSOUREA, 684-93-5, N-BUTYL-N-(4-HYDROXYBUTYL)NITROSAMINE, 3817-11-6, DIMETHY, Carcinogen: DIETHYLNITROSAMINE, 55-18-5, N-METHYL-N-NITROSOUREA, 684-93-5, N-BUTYL-N-(4-HYDROXYBUTYL)NITROSAMINE, 3817-11-6, DIMETHY, 0.1% IN THE DIET FOR 24 WK BEGINNING 1 DAY POST CARCINOGEN TREATMENT (STUDY DURATION: 28 WK), Route [Inhibitor]: ORAL, Species: RAT, Strain/Sex: F344/MALE, Target Tissue: Type of Lesion: URINARY BLADDER: PAPILLOMA, Dose [Carcinogen]: 100 MG/KG BW DEN ONCE FOLLOWED BY 20 MG/KG BW MNU 4 TIMES AND 0.05% BBN IN DRINKING WATER DURING FIRST 2 WK THEN 40 MG/K
  tumour outcome (control, treated, inhibition, significance): 7%, 33%, -371%, not significant
Carcinogen: DIETHYLNITROSAMINE, 55-18-5, N-METHYL-N-NITROSOUREA, 684-93-5, N-BUTYL-N-(4-HYDROXYBUTYL)NITROSAMINE, 3817-11-6, DIMETHY, Carcinogen: DIETHYLNITROSAMINE, 55-18-5, N-METHYL-N-NITROSOUREA, 684-93-5, N-BUTYL-N-(4-HYDROXYBUTYL)NITROSAMINE, 3817-11-6, DIMETHY, 0.1% IN THE DIET FOR 24 WK BEGINNING 1 WK P0ST CARCINOGEN TREATMENT (STUDY DURATION: 28 WK), Route [Inhibitor]: ORAL, Species: RAT, Strain/Sex: F344/MALE, Target Tissue: Type of Lesion: URINARY BLADDER: CARCINOMA, Dose [Carcinogen]: 100 MG/KG BW DEN ONCE FOLLOWED BY 20 MG/KG BW MNU 4 TIMES AND 0.05% BBN IN DRINKING WATER DURING FIRST 2 WK THEN 40 MG/K
  tumour outcome (control, treated, inhibition, significance): 7%, 33%, -371%, not significant
